The assay has as its system CD8F1 mice, subcutaneous mammary adenocarcinoma, T/C%. The assay can be described thus: NCI In Vivo Anticancer Drug Screen. Data for tumor model Mammary Adenocarcinoma CD8F1 (subcutaneous) in CD8F1. The note with it: higher = larger tumour. The essentials:
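Transplantable tumors were established in mice, animals were dosed with compound or vehicle, and survival or tumor size was then measured in both groups. The treated result was divided by the control result.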

Where [1] appears, read: endpoint: median tumor weight (est.), dose: 25.0 mg/kg/injection, schedule: Q07DX005 (ip), vehicle: Klucel (hydroxypropylcellulose) (HPC).
Where [2] appears, read: endpoint: median tumor weight (est.), dose: 50.0 mg/kg/injection, schedule: Q07DX005 (ip), vehicle: Klucel (hydroxypropylcellulose) (HPC).
The mark [3] stands for this setting: endpoint: median tumor weight (est.), dose: 100.0 mg/kg/injection, schedule: Q07DX005 (ip), vehicle: Klucel (hydroxypropylcellulose) (HPC).
Setting [4] is: endpoint: median tumor weight (est.), dose: 200.0 mg/kg/injection, schedule: Q07DX005 (ip), vehicle: Klucel (hydroxypropylcellulose) (HPC).
Where [5] appears, read: endpoint: median tumor weight (est.), dose: 6.25 mg/kg/injection, schedule: Q07DX005 (ip), vehicle: saline.
Setting [6] is: endpoint: median tumor weight (est.), dose: 12.5 mg/kg/injection, schedule: Q07DX005 (ip), vehicle: saline.
[7] abbreviates: endpoint: median tumor weight (est.), dose: 25.0 mg/kg/injection, schedule: Q07DX005 (ip), vehicle: saline.

SMILES strings stand for the structures. Where “and” joins values, the source holds several entries; their conditions need not be identical. Equal values may be shown once. Records with an inconclusive call do not appear.

`N[C@@H](Cc1ccc(N(CCCl)CCCl)cc1)C(=O)O`: the T/C (endpoint: mean tumor weight, dose: 1.25 mg/kg/injection, schedule: Q01DX009 (ip), vehicle: saline) was 10 % of control; the T/C (endpoint: mean tumor weight, dose: 2.5 mg/kg/injection, schedule: Q01DX009 (ip), vehicle: saline) was 3 % of control; the T/C (endpoint: mean tumor weight, dose: 4.0 mg/kg/injection, schedule: Q07DX006 (ip), vehicle: saline) is 12 % of control; the T/C (endpoint: mean tumor weight, dose: 5.0 mg/kg/injection, schedule: Q07DX006 (ip), vehicle: saline) is 3 % of control; the T/C (endpoint: mean tumor weight, dose: 8.0 mg/kg/injection, schedule: Q07DX006 (ip), vehicle: saline) was 1 % of control; the T/C (endpoint: median tumor weight (est.), dose: 1.0 mg/kg/injection, schedule: Q07DX005 (ip), vehicle: Klucel (hydroxypropylcellulose) (HPC)) was 91 % of control. Further, the T/C by setting is: (endpoint: median tumor weight (est.), dose: 1.0 mg/kg/injection, schedule: Q07DX005 (ip), vehicle: suspension in saline) 60 % of control; (endpoint: median tumor weight (est.), dose: 2.0 mg/kg/injection, schedule: Q01DX001 (ip), vehicle: suspension in saline) 93 % of control and 114 % of control; (endpoint: median tumor weight (est.), dose: 2.0 mg/kg/injection, schedule: Q07DX005 (ip), vehicle: Klucel (hydroxypropylcellulose) (HPC)) 42 % of control; (endpoint: median tumor weight (est.), dose: 3.0 mg/kg/injection, schedule: Q07DX005 (ip), vehicle: suspension in saline) 6 % of control; (endpoint: median tumor weight (est.), dose: 4.0 mg/kg/injection, schedule: Q01DX001 (ip), vehicle: suspension in saline) 62 % of control and 70 % of control; (endpoint: median tumor weight (est.), dose: 4.0 mg/kg/injection, schedule: Q07DX005 (ip), vehicle: Klucel (hydroxypropylcellulose) (HPC)) 16 % of control. The T/C is 12 % of control (endpoint: median tumor weight (est.), dose: 4.0 mg/kg/injection, schedule: Q07DX005 (ip), vehicle: suspension in saline); 1 % of control (endpoint: median tumor weight (est.), dose: 5.0 mg/kg/injection, schedule: Q07DX005 (ip), vehicle: suspension in saline); 15 % of control (endpoint: median tumor weight (est.), dose: 5.3 mg/kg/injection, schedule: Q01DX001 (ip), vehicle: suspension in saline); 9 % of control (endpoint: median tumor weight (est.), dose: 8.0 mg/kg/injection, schedule: Q07DX005 (ip), vehicle: Klucel (hydroxypropylcellulose) (HPC)); 1 % of control (endpoint: median tumor weight (est.), dose: 8.0 mg/kg/injection, schedule: Q07DX005 (ip), vehicle: suspension in saline); 7 % of control (endpoint: median tumor weight (est.), dose: 12.0 mg/kg/injection, schedule: Q01DX001 (ip), vehicle: suspension in saline). Besides, the T/C is, setting by setting: (endpoint: median tumor weight (est.), dose: 16.0 mg/kg/injection, schedule: Q01DX001 (ip), vehicle: suspension in saline) 8 % of control and 18 % of control; (endpoint: median tumor weight (est.), dose: 18.0 mg/kg/injection, schedule: Q01DX001 (ip), vehicle: suspension in saline) 7 % of control; (endpoint: median tumor weight change, dose: 3.0 mg/kg/injection, schedule: Q01DX001 (ip), vehicle: saline) 72 % of control; (endpoint: median tumor weight change, dose: 5.0 mg/kg/injection, schedule: Q01DX001 (ip), vehicle: saline) 4 % of control; (endpoint: median tumor weight change, dose: 10.0 mg/kg/injection, schedule: Q01DX001 (ip), vehicle: saline) -6 % of control; (endpoint: median tumor weight change, dose: 20.0 mg/kg/injection, schedule: Q01DX001 (ip), vehicle: saline) -82 % of control.

On to `c1ccc(SSc2ccccn2)nc1`, for which the T/C is, setting by setting: (endpoint: mean tumor weight, dose: 25.0 mg/kg/injection, schedule: Q07DX006 (ip), vehicle: saline) 123 % of control; (endpoint: mean tumor weight, dose: 100.0 mg/kg/injection, schedule: Q07DX006 (ip), vehicle: saline) 159 % of control.

With `Oc1ccc(O)cc1`, the T/C (endpoint: median tumor weight (est.), dose: 12.5 mg/kg/injection, schedule: Q07DX004 (ip), vehicle: saline) is 36 % of control; the T/C (endpoint: median tumor weight (est.), dose: 25.0 mg/kg/injection, schedule: Q07DX004 (ip), vehicle: saline) was 76 % of control; the T/C (endpoint: median tumor weight (est.), dose: 50.0 mg/kg/injection, schedule: Q07DX004 (ip), vehicle: saline) was 68 % of control; the T/C (endpoint: median tumor weight (est.), dose: 100.0 mg/kg/injection, schedule: Q07DX004 (ip), vehicle: saline) was 57 % of control.

For `O=[n+]1c2ccccc2n([O-])c2ccccc21.[Cl][Ni][Cl]`, the T/C (endpoint: median tumor weight change, dose: 15.63 mg/kg/injection, schedule: Q01DX001 (ip), vehicle: saline with Tween-80) was 87 % of control and the T/C (endpoint: median tumor weight change, dose: 31.25 mg/kg/injection, schedule: Q01DX001 (ip), vehicle: saline with Tween-80) was 52 % of control.

As to `COc1cc(C(=O)N/N=C/c2cccc([N+](=O)[O-])c2)cc(OC)c1OC`, the T/C is, setting by setting: (endpoint: median tumor weight change, dose: 125.0 mg/kg/injection, schedule: Q01DX001 (ip), vehicle: saline with Tween-80) 94 % of control; (endpoint: median tumor weight change, dose: 250.0 mg/kg/injection, schedule: Q01DX001 (ip), vehicle: saline with Tween-80) 60 % of control; (endpoint: median tumor weight change, dose: 500.0 mg/kg/injection, schedule: Q01DX001 (ip), vehicle: saline with Tween-80) 108 % of control; (endpoint: median tumor weight change, dose: 1000.0 mg/kg/injection, schedule: Q01DX001 (ip), vehicle: saline with Tween-80) 115 % of control; (endpoint: median tumor weight change, dose: 2000.0 mg/kg/injection, schedule: Q01DX001 (ip), vehicle: saline with Tween-80) 119 % of control.

`C(C#CCN1CCOCC1)#CCN1CCOCC1`: the T/C was 181 % of control under setting [1]; 43 % of control under setting [2]; 48 % of control under setting [3]; 41 % of control under setting [4]; 68 % of control (endpoint: median tumor weight (est.), dose: 400.0 mg/kg/injection, schedule: Q07DX005 (ip), vehicle: Klucel (hydroxypropylcellulose) (HPC)); 62 % of control (endpoint: median tumor weight (est.), dose: 800.0 mg/kg/injection, schedule: Q07DX005 (ip), vehicle: Klucel (hydroxypropylcellulose) (HPC)).

In the case of `S=C(Nc1ccc(Cl)c(Cl)c1)N1c2ccccc2-n2cccc2C1c1cccnc1` (stereo unspecified), the T/C reads like this: (endpoint: median tumor weight change, dose: 250.0 mg/kg/injection, schedule: Q01DX001 (ip), vehicle: Klucel (hydroxypropylcellulose) (HPC)) 48 % of control and 67 % of control; (endpoint: median tumor weight change, dose: 500.0 mg/kg/injection, schedule: Q01DX001 (ip), vehicle: Klucel (hydroxypropylcellulose) (HPC)) 49 % of control and 57 % of control; (endpoint: median tumor weight change, dose: 1000.0 mg/kg/injection, schedule: Q01DX001 (ip), vehicle: Klucel (hydroxypropylcellulose) (HPC)) 50 % of control and 70 % of control; (endpoint: median tumor weight change, dose: 2000.0 mg/kg/injection, schedule: Q01DX001 (ip), vehicle: Klucel (hydroxypropylcellulose) (HPC)) -11 % of control.

Turning to `O=C(Nc1ccc(Cl)c(Cl)c1)Nc1c(Oc2ccc(Cl)c(Cl)c2)ccc(Cl)c1S(=O)(=O)O`, the T/C is, setting by setting: (endpoint: median tumor weight (est.), dose: 6.25 mg/kg/injection, schedule: Q07DX005 (ip), vehicle: Klucel (hydroxypropylcellulose) (HPC)) 114 % of control; under setting [5], 78 % of control; (endpoint: median tumor weight (est.), dose: 12.5 mg/kg/injection, schedule: Q07DX005 (ip), vehicle: Klucel (hydroxypropylcellulose) (HPC)) 244 % of control; under setting [6], 123 % of control; under setting [1], 110 % of control; under setting [7], 123 % of control. Also, the T/C is 318 % of control under setting [2]; 65 % of control under setting [3]; 121 % of control (endpoint: median tumor weight (est.), dose: 100.0 mg/kg/injection, schedule: Q07DX005 (ip), vehicle: saline); 323 % of control under setting [4]; 114 % of control (endpoint: median tumor weight (est.), dose: 200.0 mg/kg/injection, schedule: Q07DX005 (ip), vehicle: saline).

As for `Nc1ncnc2nc[nH]c12`, the T/C by setting is: (endpoint: median tumor weight (est.), dose: 64.0 mg/kg/injection, schedule: Q07DX005 (ip), vehicle: Klucel (hydroxypropylcellulose) (HPC)) 75 % of control and 77 % of control and 78 % of control; (endpoint: median tumor weight (est.), dose: 512.0 mg/kg/injection, schedule: Q07DX005 (ip), vehicle: Klucel (hydroxypropylcellulose) (HPC)) 17 % of control and 31 % of control.

As for `Cc1ncc(CNC(=O)N(CCCl)N=O)c(N)n1`, the T/C is, setting by setting: under setting [5], 18 % of control; under setting [6], 20 % of control; under setting [7], 14 % of control.

Take `CC1=C(/C=C/C(C)=C/C=C/C(C)=C/C(=O)O)C(C)(C)CCC1`: the T/C (endpoint: median tumor weight (est.), dose: 8.0 mg/kg/injection, schedule: Q07DX005 (ip), vehicle: saline with Tween-80) was 47 % of control; the T/C (endpoint: median tumor weight (est.), dose: 16.0 mg/kg/injection, schedule: Q07DX005 (ip), vehicle: saline with Tween-80) was 71 % of control; the T/C (endpoint: median tumor weight (est.), dose: 64.0 mg/kg/injection, schedule: Q07DX005 (ip), vehicle: saline with Tween-80) was 92 % of control and 106 % of control; the T/C (endpoint: median tumor weight (est.), dose: 256.0 mg/kg/injection, schedule: Q07DX005 (ip), vehicle: saline with Tween-80) was 49 % of control.

Take `COc1cc([C@@H]2c3cc4c(c(O)c3C[C@H]3COC(=O)[C@@H]32)OCO4)cc(OC)c1OC`: the T/C reads like this: (endpoint: median tumor weight (est.), dose: 2.0 mg/kg/injection, schedule: Q07DX005 (ip), vehicle: saline) 45 % of control; (endpoint: median tumor weight (est.), dose: 4.0 mg/kg/injection, schedule: Q07DX005 (ip), vehicle: saline) 222 % of control; (endpoint: median tumor weight (est.), dose: 8.0 mg/kg/injection, schedule: Q07DX005 (ip), vehicle: saline) 86 % of control; (endpoint: median tumor weight (est.), dose: 16.0 mg/kg/injection, schedule: Q07DX005 (ip), vehicle: saline) 96 % of control.
